Experimental data taken from US9446039B2, “Aminoheteroaryl compounds as MTH1 inhibitors” (CEMM—FORSCHUNGSZENTRUM FÜR MOLEKULARE MEDIZIN GMBH, priority 2012, dated 2016).

Tests used:
Format in all cases: binding
[1] = target: T1, SW480 colon carcinoma cells lysate proteins (Homo sapiens, UniProt Q14498); settings: PreyGene RBM39
T1 sequence (Q14498 1-530): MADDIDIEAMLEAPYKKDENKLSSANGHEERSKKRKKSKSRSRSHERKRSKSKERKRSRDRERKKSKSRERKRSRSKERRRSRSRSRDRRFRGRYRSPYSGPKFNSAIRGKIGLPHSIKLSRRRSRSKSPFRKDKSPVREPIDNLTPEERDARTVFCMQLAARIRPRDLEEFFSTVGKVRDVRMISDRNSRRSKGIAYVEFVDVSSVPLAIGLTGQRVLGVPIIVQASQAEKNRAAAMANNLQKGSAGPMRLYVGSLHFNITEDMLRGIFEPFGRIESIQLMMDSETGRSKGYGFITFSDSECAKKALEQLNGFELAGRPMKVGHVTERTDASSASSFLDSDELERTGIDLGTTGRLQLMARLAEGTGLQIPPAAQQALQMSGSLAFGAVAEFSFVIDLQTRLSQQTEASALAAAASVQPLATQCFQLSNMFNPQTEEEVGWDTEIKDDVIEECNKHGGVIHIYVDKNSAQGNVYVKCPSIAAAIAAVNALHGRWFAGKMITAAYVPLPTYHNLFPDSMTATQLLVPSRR

[2] = target: T2, SW480 colon carcinoma cells lysate proteins (Homo sapiens, UniProt P37837); settings: PreyGene TALDO1
T2 sequence (P37837 1-337): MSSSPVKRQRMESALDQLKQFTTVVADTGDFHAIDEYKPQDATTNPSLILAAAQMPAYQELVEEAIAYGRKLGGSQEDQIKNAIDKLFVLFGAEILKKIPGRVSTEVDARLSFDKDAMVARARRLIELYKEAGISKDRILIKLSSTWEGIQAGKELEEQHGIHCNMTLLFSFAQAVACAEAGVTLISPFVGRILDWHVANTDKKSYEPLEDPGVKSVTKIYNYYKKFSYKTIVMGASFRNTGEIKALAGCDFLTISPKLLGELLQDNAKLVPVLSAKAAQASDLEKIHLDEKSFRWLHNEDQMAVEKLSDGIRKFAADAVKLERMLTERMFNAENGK

[3] = target: T3, SW480 colon carcinoma cells lysate proteins (Homo sapiens, UniProt P29373); settings: PreyGene CRABP2
T3 sequence (P29373 1-138): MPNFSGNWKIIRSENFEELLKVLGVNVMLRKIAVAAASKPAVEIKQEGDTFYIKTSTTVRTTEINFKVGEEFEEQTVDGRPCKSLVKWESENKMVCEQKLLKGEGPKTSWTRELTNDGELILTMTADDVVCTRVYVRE

[4] = target: T4, SW480 colon carcinoma cells lysate proteins (Homo sapiens, UniProt Q16543); settings: PreyGene CDC37
T4 sequence (Q16543 1-378): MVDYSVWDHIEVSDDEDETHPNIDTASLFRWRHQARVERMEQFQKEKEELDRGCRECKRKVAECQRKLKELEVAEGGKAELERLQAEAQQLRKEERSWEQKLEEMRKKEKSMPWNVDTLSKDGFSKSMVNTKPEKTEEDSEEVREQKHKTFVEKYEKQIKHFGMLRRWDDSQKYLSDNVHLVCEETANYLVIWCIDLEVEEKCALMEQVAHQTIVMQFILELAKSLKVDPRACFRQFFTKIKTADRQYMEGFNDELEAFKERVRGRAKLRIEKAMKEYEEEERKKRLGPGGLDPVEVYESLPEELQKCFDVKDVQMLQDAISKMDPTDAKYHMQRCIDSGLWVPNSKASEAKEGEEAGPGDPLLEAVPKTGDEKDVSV

[5] = target: SW480 colon carcinoma cells lysate proteins (Homo sapiens, UniProt Q562R1); settings: PreyGene ACTBL2; SW480 cells
[6] = target: SW480 colon carcinoma cells lysate proteins (Homo sapiens, UniProt P49327); settings: PreyGene FASN
[7] = target: T5, SW480 colon carcinoma cells lysate proteins (Homo sapiens, UniProt Q9H9Z2); settings: PreyGene LIN28A
T5 sequence (Q9H9Z2 1-209): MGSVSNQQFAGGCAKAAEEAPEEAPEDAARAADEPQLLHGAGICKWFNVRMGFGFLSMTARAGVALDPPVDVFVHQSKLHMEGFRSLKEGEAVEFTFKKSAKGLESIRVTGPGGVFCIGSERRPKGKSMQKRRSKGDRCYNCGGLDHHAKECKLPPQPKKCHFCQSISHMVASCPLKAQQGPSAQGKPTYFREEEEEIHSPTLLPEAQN

[8] = target: SW480 colon carcinoma cells lysate proteins (Homo sapiens, UniProt Q9NTK5); settings: PreyGene OLA1; SW480 cells
[9] = target: SW480 colon carcinoma cells lysate proteins (Homo sapiens, UniProt Q06210); settings: PreyGene GFPT1; SW480 cells
Chain of SW480 colon carcinoma cells lysate proteins (Homo sapiens, UniProt Q06210) (Q06210 whole entry): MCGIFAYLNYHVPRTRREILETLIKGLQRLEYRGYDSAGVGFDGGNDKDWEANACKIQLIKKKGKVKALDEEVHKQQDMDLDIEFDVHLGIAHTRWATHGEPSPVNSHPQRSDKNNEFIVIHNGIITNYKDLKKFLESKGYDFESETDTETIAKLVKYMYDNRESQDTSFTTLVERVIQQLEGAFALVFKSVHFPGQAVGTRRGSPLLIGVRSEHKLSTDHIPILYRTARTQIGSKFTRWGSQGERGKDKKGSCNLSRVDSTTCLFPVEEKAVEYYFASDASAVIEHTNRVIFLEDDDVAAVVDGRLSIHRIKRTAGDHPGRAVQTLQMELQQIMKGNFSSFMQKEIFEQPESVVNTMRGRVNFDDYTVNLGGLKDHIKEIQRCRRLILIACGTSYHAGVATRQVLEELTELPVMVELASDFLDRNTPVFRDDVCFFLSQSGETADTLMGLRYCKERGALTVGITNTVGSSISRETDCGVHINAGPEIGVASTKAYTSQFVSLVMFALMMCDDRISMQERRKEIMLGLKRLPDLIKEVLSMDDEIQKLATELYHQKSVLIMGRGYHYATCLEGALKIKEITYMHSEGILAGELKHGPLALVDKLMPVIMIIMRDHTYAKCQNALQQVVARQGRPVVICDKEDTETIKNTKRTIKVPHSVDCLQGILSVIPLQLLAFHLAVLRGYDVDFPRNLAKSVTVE

Chain of SW480 colon carcinoma cells lysate proteins (Homo sapiens, UniProt Q562R1) (Q562R1 whole entry): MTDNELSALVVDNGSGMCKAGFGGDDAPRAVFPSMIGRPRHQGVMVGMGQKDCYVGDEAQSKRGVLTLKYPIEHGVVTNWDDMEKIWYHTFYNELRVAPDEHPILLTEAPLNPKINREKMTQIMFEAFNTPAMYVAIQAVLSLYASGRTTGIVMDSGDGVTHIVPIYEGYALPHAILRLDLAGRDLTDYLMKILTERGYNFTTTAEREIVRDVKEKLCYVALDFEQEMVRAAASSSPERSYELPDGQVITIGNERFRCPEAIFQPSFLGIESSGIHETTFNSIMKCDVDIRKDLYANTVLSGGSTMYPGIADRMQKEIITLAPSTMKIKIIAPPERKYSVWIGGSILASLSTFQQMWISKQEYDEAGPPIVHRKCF
Chain of SW480 colon carcinoma cells lysate proteins (Homo sapiens, UniProt P49327) (P49327 whole entry): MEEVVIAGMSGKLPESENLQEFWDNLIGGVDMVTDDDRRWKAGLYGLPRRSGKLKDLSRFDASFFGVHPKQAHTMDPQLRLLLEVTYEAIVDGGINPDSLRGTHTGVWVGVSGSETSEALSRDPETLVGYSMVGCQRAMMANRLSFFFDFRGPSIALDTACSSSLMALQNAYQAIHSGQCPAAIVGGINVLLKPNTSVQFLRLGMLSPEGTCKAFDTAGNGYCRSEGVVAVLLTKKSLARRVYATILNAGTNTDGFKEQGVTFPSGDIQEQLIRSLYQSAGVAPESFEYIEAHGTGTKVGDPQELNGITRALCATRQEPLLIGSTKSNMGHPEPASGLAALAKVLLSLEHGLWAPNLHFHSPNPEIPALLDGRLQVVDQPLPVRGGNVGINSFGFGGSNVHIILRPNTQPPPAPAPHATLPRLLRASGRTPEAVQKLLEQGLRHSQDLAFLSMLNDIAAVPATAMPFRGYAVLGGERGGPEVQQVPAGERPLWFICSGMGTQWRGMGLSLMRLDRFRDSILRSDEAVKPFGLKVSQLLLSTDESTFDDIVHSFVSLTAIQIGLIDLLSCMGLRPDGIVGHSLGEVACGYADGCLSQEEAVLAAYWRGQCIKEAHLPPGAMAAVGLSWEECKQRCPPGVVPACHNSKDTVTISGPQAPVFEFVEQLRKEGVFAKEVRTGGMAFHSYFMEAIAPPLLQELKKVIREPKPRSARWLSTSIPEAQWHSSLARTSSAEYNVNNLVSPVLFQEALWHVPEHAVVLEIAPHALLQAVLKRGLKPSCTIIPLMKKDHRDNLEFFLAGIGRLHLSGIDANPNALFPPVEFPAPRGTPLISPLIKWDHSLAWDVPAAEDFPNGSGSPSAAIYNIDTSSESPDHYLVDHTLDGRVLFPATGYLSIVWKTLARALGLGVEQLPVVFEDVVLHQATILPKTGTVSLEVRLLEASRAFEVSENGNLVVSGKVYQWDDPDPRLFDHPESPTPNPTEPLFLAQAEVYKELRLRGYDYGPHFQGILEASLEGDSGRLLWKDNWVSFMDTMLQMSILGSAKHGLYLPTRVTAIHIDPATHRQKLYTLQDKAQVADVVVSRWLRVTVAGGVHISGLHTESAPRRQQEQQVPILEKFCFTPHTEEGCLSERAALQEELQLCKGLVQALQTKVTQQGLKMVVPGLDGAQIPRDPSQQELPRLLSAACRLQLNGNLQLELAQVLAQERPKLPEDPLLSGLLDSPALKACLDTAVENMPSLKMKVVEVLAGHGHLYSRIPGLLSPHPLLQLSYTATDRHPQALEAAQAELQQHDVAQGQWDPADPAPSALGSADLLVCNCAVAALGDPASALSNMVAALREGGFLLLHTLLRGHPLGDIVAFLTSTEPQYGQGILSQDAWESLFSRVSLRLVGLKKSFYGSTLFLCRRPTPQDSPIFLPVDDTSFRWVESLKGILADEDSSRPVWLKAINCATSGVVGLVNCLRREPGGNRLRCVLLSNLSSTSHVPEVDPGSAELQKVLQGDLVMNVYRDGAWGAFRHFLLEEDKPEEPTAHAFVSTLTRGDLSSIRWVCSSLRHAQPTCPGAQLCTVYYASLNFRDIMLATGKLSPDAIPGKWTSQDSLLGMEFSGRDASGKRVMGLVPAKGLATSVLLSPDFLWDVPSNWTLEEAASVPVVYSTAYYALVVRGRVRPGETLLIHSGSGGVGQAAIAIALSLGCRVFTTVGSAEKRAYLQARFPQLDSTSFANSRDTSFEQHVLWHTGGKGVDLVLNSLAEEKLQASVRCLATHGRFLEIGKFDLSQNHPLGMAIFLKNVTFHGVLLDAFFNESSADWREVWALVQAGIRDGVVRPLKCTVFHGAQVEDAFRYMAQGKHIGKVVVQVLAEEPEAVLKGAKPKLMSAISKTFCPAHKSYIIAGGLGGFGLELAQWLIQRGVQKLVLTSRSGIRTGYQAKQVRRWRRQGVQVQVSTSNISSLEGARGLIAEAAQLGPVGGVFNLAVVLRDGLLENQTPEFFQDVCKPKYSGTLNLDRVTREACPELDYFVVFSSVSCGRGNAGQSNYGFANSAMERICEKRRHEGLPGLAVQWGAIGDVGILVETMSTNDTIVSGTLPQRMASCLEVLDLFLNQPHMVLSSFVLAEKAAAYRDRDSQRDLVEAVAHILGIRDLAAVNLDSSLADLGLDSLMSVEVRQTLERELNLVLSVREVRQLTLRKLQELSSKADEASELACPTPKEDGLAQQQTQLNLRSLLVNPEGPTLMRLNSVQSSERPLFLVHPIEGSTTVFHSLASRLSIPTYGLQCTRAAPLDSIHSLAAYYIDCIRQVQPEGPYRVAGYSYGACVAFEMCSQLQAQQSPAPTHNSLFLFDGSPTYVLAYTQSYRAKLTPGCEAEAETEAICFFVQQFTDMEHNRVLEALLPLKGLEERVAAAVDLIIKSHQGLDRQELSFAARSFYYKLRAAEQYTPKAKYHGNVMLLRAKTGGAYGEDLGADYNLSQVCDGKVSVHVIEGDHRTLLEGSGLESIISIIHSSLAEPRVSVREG
Chain of SW480 colon carcinoma cells lysate proteins (Homo sapiens, UniProt Q9NTK5) (Q9NTK5 whole entry): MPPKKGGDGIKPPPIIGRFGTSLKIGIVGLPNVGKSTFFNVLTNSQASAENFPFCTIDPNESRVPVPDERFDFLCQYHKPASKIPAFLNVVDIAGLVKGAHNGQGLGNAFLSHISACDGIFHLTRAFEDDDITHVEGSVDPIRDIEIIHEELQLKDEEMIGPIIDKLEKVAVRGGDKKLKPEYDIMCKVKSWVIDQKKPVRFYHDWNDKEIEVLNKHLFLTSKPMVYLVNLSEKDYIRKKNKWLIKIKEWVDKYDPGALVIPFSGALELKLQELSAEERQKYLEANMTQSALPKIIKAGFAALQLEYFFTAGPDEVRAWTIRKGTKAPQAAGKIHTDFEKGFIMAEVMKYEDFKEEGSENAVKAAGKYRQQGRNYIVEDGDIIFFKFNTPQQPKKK

## C[C@H](Oc1cc(-c2cnn(C3CCNCC3)c2)cnc1N)c1c(Cl)ccc(F)c1Cl [(5)-crizotinib]
[1]
  AvgP: 0.4214
  SC.Exp. 1-1: 4
  SC.Exp. 1-2: 3
  SC.Exp. 2-1: 0
  SC.Exp. 2-2: 0
  Sum (SC.Exp.): 7
[2]
  AvgP: 0.3739
  SC.Exp. 1-1: 2
  SC.Exp. 1-2: 2
  SC.Exp. 2-1: 0
  SC.Exp. 2-2: 0
  Sum (SC.Exp.): 4
[3]
  AvgP: 0.2533
  SC.Exp. 1-1: 4
  SC.Exp. 1-2: 1
  SC.Exp. 2-1: 0
  SC.Exp. 2-2: 0
  Sum (SC.Exp.): 5
[4]
  AvgP: 0.4343
  SC.Exp. 1-1: 3
  SC.Exp. 1-2: 3
  SC.Exp. 2-1: 0
  SC.Exp. 2-2: 0
  Sum (SC.Exp.): 6
[5]
  AvgP: 0
  SC.Exp. 1-1: 1
  SC.Exp. 1-2: 1
  SC.Exp. 2-1: 0
  SC.Exp. 2-2: 0
  SC.Exp. Sum: 2
[6]
  AvgP: 0.394
  SC.Exp. 1-1: 8
  SC.Exp. 1-2: 8
  SC.Exp. 2-1: 0
  SC.Exp. 2-2: 0
  Sum (SC.Exp.): 16
[7]
  AvgP: 0.3021
  SC.Exp. 1-1: 2
  SC.Exp. 1-2: 2
  SC.Exp. 2-1: 2
  SC.Exp. 2-2: 0
  Sum (SC.Exp.): 6
[8]
  AvgP: 0
  SC.Exp. 1-1: 1
  SC.Exp. 1-2: 1
  SC.Exp. 2-1: 0
  SC.Exp. 2-2: 0
  SC.Exp. Sum: 2
[9]
  AvgP: 0
  SC.Exp. 1-1: 1
  SC.Exp. 1-2: 1
  SC.Exp. 2-1: 0
  SC.Exp. 2-2: 0
  SC.Exp. Sum: 2
